# In patent US8119616B2, “Formulation of quinazoline based EGFR inhibitors containing a zinc binding moiety” (Curis, Inc., priority 2007, dated 2012):
# Legend:
# [1] = molecular target: T1, human EGFR (Homo sapiens, UniProt P00533); assay: HTScan EGF Receptor Kinase assay; format: biochemical; details: FIG. 1
# T1 construct: human EGFR (His672-Ala1210); purchased Cell Signaling Technologies; host or cells: baculovirus expression system
# Protocol: The ability of compounds to inhibit receptor kinase (EGFR) activity was assayed using HTScan™ EGF Receptor Kinase Assay Kits (Cell Signaling Technologies, Danvers, Mass.). […] The protein was purified by one-step affinity chromatography using glutathione-agarose.
# Immediately transfer enzyme from −80° C. to ice. Allowed enzyme to thaw on ice. […] Returned immediately to ice. […] Incubated reaction plate at room temperature for 30 minutes. […] Added 100 μl/well primary antibody. Incubated at room temperature for 60 minutes. […] Added 100 μl/well diluted antibody. Incubated at room temperature for 30 minutes. […] Incubated at room temperature for 5 minutes.
# [2] = system: Breast_MCF7; assay: Cell proliferation assay (ATPlite); format: cell-based; details: 72 hours, 0.5% fetal bovine serum
# Protocol: (§1) A representative number of compounds were assayed against several different cell lines using the cell proliferation assay:
# (§2) Cell Proliferation Assay:
# (§3) Cancer cell lines were plated at 5,000 to 10,000 per well in 96-well flatted bottomed plates with various concentration of compounds. The cells were incubated with compounds for 72 hours in the presence of 0.5% of fetal bovine serum. Growth inhibition was accessed by adenosine triphosphate (ATP) content assay using Perkin Elmer ATPlite kit. ATPlite is an ATP monitoring system based on firefly luciferase. Briefly, 25 μl of mammalian cell lysis solution was added to 50 μl of phenol red-free culture medium per well to lyse the cells and stabilize the ATP. 25 μl of substrate solution was then added to the well and subsequently the luminescence was measured.
# [3] = system: Breast_MDAMB468; assay: Cell proliferation assay (ATPlite); format: cell-based; details: 72 hours, 0.5% fetal bovine serum
# Protocol: as §1, §2, §3
# [4] = system: Lung_H2122; assay: Cell proliferation assay (ATPlite); format: cell-based; details: 72 hours, 0.5% fetal bovine serum
# Protocol: as §1, §2, §3
# [5] = system: Pancreas_CFPAC; assay: Cell proliferation assay (ATPlite); format: cell-based; details: 72 hours, 0.5% fetal bovine serum
# Protocol: as §1, §2, §3
# [6] = system: HDAC; assay: Ac-H4 and Ac-H3 accumulation in MDA-MB-468 breast cancer cell line; format: cell-based; details: FIG. 2
# [7] = system: EGFR; assay: EGFR phosphorylation in MDA-MB-468 breast cancer cell line; format: cell-based; details: FIG. 2
# Protocol: Allowed A431 cell growth in a T75 flask using standard tissue culture procedures until cells reach near confluency (˜1.5×10^7) cells; D-MEM, 10% FBS). Under sterile conditions dispensed 100 μl of the cell suspension per well in 96-well microplates (x cells plated per well). Incubated cells and monitor cell density until confluency is achieved with well-to-well consistency; approximately three days. Removed complete media from plate wells by aspiration or manual displacement. Replaced media with 50 μl of pre-warmed serum free media per well and incubated 4 to 16 hours. Made two fold serial dilutions of inhibitor using pre-warmed D-MEM so that the final concentration of inhibitor range from 10 μM to 90 pM. Removed media from A431 cell plate. Added 100 μl of serial diluted inhibitor into cells and incubate 1 to 2 hours. Removed inhibitor from plate wells by aspiration or manual displacement. Added either serum free media for resting cells (mock) or serum free media with 100 ng/ml EGF. Used 100 μl of resting/activation media per well. Allowed incubation at 37° C. for 7.5 minutes. Removed activation or stimulation media manually or by aspiration. Immediately fixed cells with 4% formaldehyde in 1×PBS. […] Determined the ratio of […] protein (700/800) using Odyssey software and plot the results in Graphpad Prism (V4.0a).
# [8] = system: A549 NSCLC; assay: A549 NSCLC Xenograft model; format: in vivo, mice; details: compared with vehicle or control
# Protocol: A representative protocol for the in vivo experiment is as followed:
# 1-10×10^6 human cancer cells were implanted subcutaneously to the athymic (nu/nu) mice. When the tumors reached about 100 mm^3 in volume, the mice were treated with the compound by tail vein infusion. Routinely 5 groups (8-12 mice per group) are needed for a typical efficacy study, including one negative control, one positive control, and three testing groups for 3 dose levels of the same compound. Usually a 7-7-5 (on-off-on) regimen was used for one typical study. The tumor size was measured with an electronic caliper and body weight measured with a scale twice weekly. The tumors were removed from euthanized mice at the end of the study. One half of each tumor was frozen in dry ice and stored at −80° C. for PK or Western blot analysis. The other half was fixed with formalin. The fixed tissues were processed, embedded in paraffin and sectioned for immunohistochemistry staining. Protocol for Radioisotope assay for HER2
# [9] = male, CD-1, mouse, in vivo, iv, 9 day
# Protocol: Single dosing MTD in mice • a. CD-1 mice, male, 24-26 gram • b. Dosing at 0, 50, 100, 200, 400 mg/kg, iv infusion 2 min • c. 8 mice per group
# (§4) Stock solution is diluted with 30% CAPTISOL before use.
# [10] = both, Sprague Dawley, rat, in vivo, iv, 7 days
# Protocol: 7-day multiple dosing MTD in rats • a. Sprague Dawley, male and female, 220-250 gram • b. Dose, 25, 50, 100, 200 mg/kg/d) iv infusion 5 min • c. 6 per group (3 male and 3 female) • d. Blood and organs will be collected 2 hr after last dosing on Day 7 for hematology Compound Preparation
# as §4
# T1 sequence (P00533 672-1210): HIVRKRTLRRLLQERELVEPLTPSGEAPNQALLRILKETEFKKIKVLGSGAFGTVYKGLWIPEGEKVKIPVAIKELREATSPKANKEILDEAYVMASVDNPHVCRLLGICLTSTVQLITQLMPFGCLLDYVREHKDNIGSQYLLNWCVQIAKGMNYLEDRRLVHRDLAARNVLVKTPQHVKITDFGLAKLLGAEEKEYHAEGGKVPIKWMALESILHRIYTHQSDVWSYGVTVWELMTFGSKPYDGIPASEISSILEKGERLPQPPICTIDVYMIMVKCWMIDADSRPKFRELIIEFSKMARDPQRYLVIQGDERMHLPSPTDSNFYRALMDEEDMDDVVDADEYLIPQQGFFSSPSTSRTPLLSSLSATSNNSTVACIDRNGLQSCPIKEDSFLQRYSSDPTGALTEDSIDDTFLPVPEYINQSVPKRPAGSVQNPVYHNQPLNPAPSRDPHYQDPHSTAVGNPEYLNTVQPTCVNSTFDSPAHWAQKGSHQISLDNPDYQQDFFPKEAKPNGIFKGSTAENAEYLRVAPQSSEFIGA
compound,measurement,setting,value
"C#Cc1cccc(Nc2ncnc3cc(OC)c(OCCCCCCC(=O)NO)cc23)c1 [Compound 12, 7-(4-(3-ethynylphenylamino)-7-methoxyquinazolin-6-yloxy)-N-hydroxyheptanamide]",activity in EFGR enzyme assay compared with erlotinib and SAHA,[1],more active than erlotinib and SAHA
same,IC50,[2],< 0.1 µM
same,IC50,[3],< 0.1 µM
same,IC50,[4],0.1 to 1 µM
same,IC50,[5],0.1 to 1 µM
same,inhibition of histone acetylation compared with SAHA,[6],improvement in inhibition
same,inhibition of EGFR phosphorylation compared with Erlotinib,[7],improvement in inhibition
same,effect on tumor size / tumor growth,[8],attenuated tumor growth
same,dose that did not result in a significant change in body weight,[9],up to 200 mg/kg
same,dose that did not result in a significant change in body weight or food consumption,[10],up to 100 mg/kg
